Assay results published in patent US12239654B2, “Compounds and methods for treating neurological and cardiovascular conditions” (Astrocyte Pharmaceuticals, Inc., priority 2016, dated 2025).

Legend:
[1] = target: T1, human A3 adenosine receptor (Homo sapiens, UniProt P0DMS8); assay: cAMP accumulation at human A3 receptors expressed in CHO cells; format: cell-based
T1 construct: expressed in transfected cells; whole cells for cAMP
T1 sequence (P0DMS8 1-318): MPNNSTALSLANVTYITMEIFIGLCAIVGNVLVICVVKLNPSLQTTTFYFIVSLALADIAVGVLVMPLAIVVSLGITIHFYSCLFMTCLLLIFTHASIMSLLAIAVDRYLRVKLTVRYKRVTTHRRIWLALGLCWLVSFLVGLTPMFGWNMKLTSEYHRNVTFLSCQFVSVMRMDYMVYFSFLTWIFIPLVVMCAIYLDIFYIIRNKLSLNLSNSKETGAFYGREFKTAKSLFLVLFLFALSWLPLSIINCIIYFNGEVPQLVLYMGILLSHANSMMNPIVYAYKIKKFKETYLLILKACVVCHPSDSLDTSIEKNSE
Description: (§1) Additionally cAMP experiments were conducted at CHO cells recombinantly expressing human A3 or mouse A3 adenosine receptors, respectively.

[2] = target: T2, mouse A3 adenosine receptor (Mus musculus, UniProt Q61618); assay: cAMP accumulation at mouse A3 receptors expressed in CHO cells; format: cell-based
T2 construct: expressed in transfected cells; whole cells for cAMP
T2 sequence (Q61618 1-319): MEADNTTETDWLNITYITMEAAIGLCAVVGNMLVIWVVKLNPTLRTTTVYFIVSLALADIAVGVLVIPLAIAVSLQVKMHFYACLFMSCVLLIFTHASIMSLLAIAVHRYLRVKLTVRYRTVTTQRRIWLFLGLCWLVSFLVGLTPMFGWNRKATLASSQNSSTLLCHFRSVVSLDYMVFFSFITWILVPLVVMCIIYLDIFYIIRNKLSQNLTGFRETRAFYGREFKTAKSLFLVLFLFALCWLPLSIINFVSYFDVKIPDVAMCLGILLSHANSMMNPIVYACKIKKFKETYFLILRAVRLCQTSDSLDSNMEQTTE
Description: as §1

[3] = In vitro stability of MRS2365 in human plasma; format: in vitro ADME
Description: (§2) Whole blood was obtained from male CD-1 mice and human volunteers at Seventh Wave Laboratories (Maryland Heights, MO). Plasma and blood samples were prepared using either EDTA (1 mM) or lithium heparin as anticoagulants.
Plasma Stability Determination: MRS2365, enalapril and procaine were solubilized in phosphate-buffered saline, pH 7.4. […] Stability incubations were initiated with the addition of MRS2365 (1 μM final concentration). Initial assessments of stability in EDTA-generated plasma utilized incubation timepoints of 0, 10, 30, 60, 120 and 240 minutes (FIGS. 3 and 4). Subsequent studies comparing EDTA- and heparin-generated plasma utilized incubation timepoints of 0, 1, 2.5, 5, 7.5, 10 and 30 minutes (FIG. 7). Additional plasma stability incubations comparing EDTA- and heparin-generated plasma were performed using timepoints of 0, 5, 10, 20, 30, 45, 60 and 90 seconds (FIG. 8). For metabolite scouting analyses, MRS2365 was incubated in heparinized human plasma at a concentration of 100 μM for 10 or 30 minutes (FIG. 9). In all studies, plasma was immediately placed in microtainer tubes, frozen on dry ice and stored at −80° C. until analysis.
(§3) The following table outlines the LC and MS/MS conditions employed (Table 11).
The calibration range for MRS2365 plasma and blood concentration standard curves was 5-5000 ng/mL. […]

[4] = In vitro stability of MRS2365 in human whole blood; format: in vitro ADME; details: EDTA-treated human whole blood, read-out: estimated half-life
Description: as §2
Blood Stability Determination: MRS2365, enalapril and procaine were solubilized in phosphate-buffered saline, pH 7.4. […] Stability incubations were initiated with the addition of MRS2365 (1 μM final concentration) (FIGS. 5 and 6). Blood sample aliquots were obtained at 0, 1, 2.5, 7.5, 10 and 30 minutes and placed in microtainer tubes. For metabolite scouting analyses, MRS2365 was incubated in heparinized human whole blood at a concentration of 100 μM for 10 or 30 minutes (FIG. 10). In all studies, plasma was immediately prepared by centrifugation at 4° C., placed in microtainer tubes, frozen on dry ice and stored at −80° C. until analysis.
as §3
The calibration range for MRS2365 plasma and blood concentration standard curves was 5-5000 ng/mL. Quality control samples were utilized at concentrations of 32, 160, 800 and 4000 ng/mL.

Row | Structure (SMILES) | EC50 ([1]; CHO cells stably expressing human A3R, read-out: EC50 ± SEM, Human A3R, cAMP accumulation) [µM] | Emax at 100 µM ([1]; read-out: efficacy at 100 μM concentration in % relative to maximal effect of NECA, Human A3R, 100 μM, cAMP accumulation, CHO cells) [%] | EC50 ([2]; CHO cells stably expressing mouse A3R, read-out: EC50 ± SEM, Mouse A3R, cAMP accumulation) [µM] | Emax at 100 µM ([2]; read-out: efficacy at 100 μM concentration in % relative to maximal effect of NECA, Mouse A3R, 100 μM, cAMP accumulation, CHO cells) [%] | half-life at 1 μM ([3]; EDTA-prepared human plasma, 1 μM, incubation out to 240 minutes) [h] | MRS2365 concentrations in heparin-treated plasma ([3]; heparin-treated human plasma, 0-90 seconds, even at 0 and 5 seconds) | half-life at 1 μM [4] [h]
1 | CSc1nc(N)c2ncn([C@H]3[C@H](O)[C@H](O)[C@]4(CO)C[C@H]34)c2n1 [MRS4322] | 3.63 ± 0.37 | 70 | 0.759 ± 0.17 | 72 |  |  | 
2 | CSc1nc(N)c2ncn([C@H]3[C@H](O)[C@H](O)[C@]4(COP(=O)(O)OP(=O)(O)O)C[C@H]34)c2n1 [MRS2365] |  |  |  |  | > 4 | extremely low | > 4
